Article PMC8443589, “Modelling human liver fibrosis in the context of non-alcoholic steatohepatitis using a microphysiological system” (Communications Biology, 2021)

Test system: liver MPS NASH model (PHH, KC and HSC co-cultures)
Experiment: Cue study: secreted cytokines and chemokines (Luminex) with varying NPC number and added cues (Fig 5a, 5b)
Type: cell-based, human
Conditions: Fat media + cue
Text: There is only limited understanding of the pathogenic drivers of NASH and their interaction, principally due to a lack of translational models that are amenable to detailed molecular analysis[2],[34]. Here, a systems biology ‘cue-signal-analysis’ paradigm[35],[36] was utilised to produce large factorial datasets to enable the identification of molecular pathways of importance. […] To create varying set ups of the NASH microtissues we created hepatocyte microtissues in the MPS with high numbers of NPC (60,000 KC and HSC—equivalent to 10% of microtissue population) and low numbers of NPCs (6000 KC and HSC—equivalent to 1% of microtissue), representing physiological and non-physiological cell ratios respectively. Next, we took these different microtissues and cultured them in media with or without FFA. Finally, we supplemented the media with lipopolysaccharide (LPS), TGFβ, fructose or cholesterol either as single ‘cues’, in pairs or all together (Fig. 4a). ‘Cues’ were selected for clinical association with NASH. LPS, is a pleiotropic inflammatory molecule, it is proposed to reach the liver via the hepatic portal vein after release from the gastrointestinal tract, contributing to disease progression[37],[38]. TGFβ has been extensively studied in relation to fibrosis due to its regulation of genes controlling collagen and matrix-modifying enzymes. Fructose is a key substrate for de-novo lipogenesis, a process that has been identified as a key event in lipid accumulation within NAFLD patients. Finally, cholesterol accumulation has also been linked to NASH disease aetiology.
Assessment of gene expression changes was supplemented by assessment of the secretome produced by NASH microtissues in the MPS after exposure to the various cues. Increased pro-inflammatory cytokine secretion is a defining characteristic in NASH patients, so we conducted a Luminex cytokine array covering 42 different biomarkers, cytokines and chemokines secreted into the culture media of the different microtissues at multiple time points. […]

## TGF-β
Day 6
  EGF relative expression (z-transformation): -0.6947
  Eotaxin relative expression (z-transformation): -0.9288
  FGF-2 relative expression (z-transformation): 0.0308
  Fit-3L relative expression (z-transformation): -0.07468
  Fractalkine relative expression (z-transformation): -0.6368
  G-CSF relative expression (z-transformation): 0.1243
  GRO relative expression (z-transformation): -0.2928
  IFN-a2 relative expression (z-transformation): 0.07826
  IL-1RA relative expression (z-transformation): -0.2716
  IL-4 relative expression (z-transformation): -0.7382
  IL-6 relative expression (z-transformation): 0.4237
  IL-7 relative expression (z-transformation): -0.09812
  IL-8 relative expression (z-transformation): 0.2731
  IL-15 relative expression (z-transformation): 0.3864
  IP-10 relative expression (z-transformation): -0.5991
  MCP-1 relative expression (z-transformation): -0.1254
  MCP-3 relative expression (z-transformation): -0.3354
  MDC relative expression (z-transformation): 1.089
  MIP-1a relative expression (z-transformation): -0.3189
  MIP-1b relative expression (z-transformation): -0.5904
  TNFa relative expression (z-transformation): -0.3323
  VEGF relative expression (z-transformation): 0.1644
Day 11
  EGF relative expression (z-transformation): 0.4971
  Eotaxin relative expression (z-transformation): -0.7902
  FGF-2 relative expression (z-transformation): 1.282
  Fit-3L relative expression (z-transformation): -1.046
  Fractalkine relative expression (z-transformation): 0.2445
  G-CSF relative expression (z-transformation): 1.379
  GM-CSF relative expression (z-transformation): -0.7569
  GRO relative expression (z-transformation): -0.05931
  IFN-a2 relative expression (z-transformation): -0.7423
  IL-1RA relative expression (z-transformation): 1.044
  IL-4 relative expression (z-transformation): 2.047
  IL-6 relative expression (z-transformation): -0.4878
  IL-7 relative expression (z-transformation): 0.613
  IL-8 relative expression (z-transformation): 1.674
  IL-15 relative expression (z-transformation): 1.1283
  IP-10 relative expression (z-transformation): -0.5014
  MCP-1 relative expression (z-transformation): -0.1617
  MCP-3 relative expression (z-transformation): 1.036
  MDC relative expression (z-transformation): -0.8939
  MIP-1a relative expression (z-transformation): -0.2467
  MIP-1b relative expression (z-transformation): -0.2666
  TNFa relative expression (z-transformation): -0.5851
  VEGF relative expression (z-transformation): 0.04572
Day 14
  EGF relative expression (z-transformation): -0.7709
  Eotaxin relative expression (z-transformation): -0.8142
  FGF-2 relative expression (z-transformation): -0.6405
  Fit-3L relative expression (z-transformation): -1.202
  Fractalkine relative expression (z-transformation): -0.4453
  G-CSF relative expression (z-transformation): 2.694
  GM-CSF relative expression (z-transformation): -0.9022
  GRO relative expression (z-transformation): -0.07849
  IFN-a2 relative expression (z-transformation): 0.3354
  IL-1RA relative expression (z-transformation): 0.4791
  IL-4 relative expression (z-transformation): 0.3542
  IL-6 relative expression (z-transformation): -0.7405
  IL-7 relative expression (z-transformation): -0.2291
  IL-8 relative expression (z-transformation): 1.963
  IL-15 relative expression (z-transformation): 1.049
  IP-10 relative expression (z-transformation): -0.2731
  MCP-1 relative expression (z-transformation): -0.3727
  MCP-3 relative expression (z-transformation): 1.8775
  MDC relative expression (z-transformation): -0.4908
  MIP-1a relative expression (z-transformation): -0.1191
  MIP-1b relative expression (z-transformation): -0.282
  TNFa relative expression (z-transformation): -0.5429
  VEGF relative expression (z-transformation): -0.6644
